Reference: paper PMC7309225, “Synthesis, Biodistribution, and Radiation Dosimetry of a Novel mGluR5 Radioligand: ^18F-AZD9272” (ACS Chemical Neuroscience, 2020)
Where “and” joins values, the source holds several entries; their conditions need not be identical. Identical values can stand only once.

Tests used:
[1] = Radiometabolite analysis of plasma by radio-HPLC during PET; assay type: in vivo, cynomolgus monkey
Experimental: (§1) An automated blood sampling system (ABSS) was used to measure the continuous radioactivity for the first 3 min after the radioligand injection. Then, blood sampling was performed manually for the measurement of metabolism and radioactivity at 5, 15, 30, 60, 90, and 120 min after the injection. A reversed-phase radio-HPLC method was used to determine the amount of unchanged ^18F-AZD9272 and its radioactive metabolites in NHP plasma.[35]

[2] = system: monoamine oxidase-B (MAO-B); design: method as in PMID 23541825; details: NHP brain; cited from earlier work
mGluR5 = test: Brain PET in cynomolgus monkey (HRRT), VT by 2TC model and Logan GA; assay type: in vivo
Experimental: Two male cynomolgus monkeys (NHP1: 5460 g and NHP2: 7080 g) were used in this study. […] Anesthesia was induced by intramuscular injection of ketamine hydrochloride (approximately 10 mg/kg) at AFL and maintained by intravenous infusion of ketamine (4 mg/kg/h) and xylazine (0.4 mg/kg/h) with a pump. The NHP head was immobilized with a fixation device. […] Heart rate, blood pressure, respiratory rate, and oxygen saturation were continuously monitored throughout the experiments. Fluid balance was maintained by continuous infusion of saline.
PET measurements were conducted using a High Resolution Research Tomograph (HRRT) PET scanner (Siemens Molecular Imaging, Knoxville, TN). […] List-mode data were reconstructed with a series of 34 frames (20 s × 9, 1 min × 3, 3 min × 5, and 6 min × 17), using the ordinary Poisson-3D-ordered subset expectation maximization (OP-3D-OSEM) algorithm with 10 iterations and 16 subsets including modeling of the point spread function (PSF).
as §1
The regions of interest (ROIs) were delineated manually on the MRI images of each NHP for the anterior cingulate cortex, amygdala, caudate, cerebellum, hippocampus, insular cortex, occipital cortex, prefrontal cortex, putamen, temporal cortex, thalamus, ventral midbrain, and ventral striatum. The MRI of the individual NHP was co-registered to summed PET images of the whole measurement. By applying the co-registration parameters to ROIs, the time–activity curves of brain regions were generated from dynamic PET data.
As the main outcome measure, the total distribution volume (VT) defined as (K1/k2)(k3/k4 + 1) by the two tissue compartment (2TC) model and Logan graphical analysis (GA) was calculated with the metabolite corrected plasma radioactivity as the input function. […] The procedure has been described in detail in a previous publication on [^11C]AZD9272 binding.[33]

N#Cc1cc(F)cc(-c2nc(-c3ccc([18F])cn3)no2)c1 [^18F-AZD9272, 3-fluoro-5-(3-(5-[^18F]fluoropyridin-2-yl)-1,2,4-oxadiazol-5-yl)benzonitrile]
Parent compound in plasma ([1]; 5 min after injection): approximately 95% | Percentage of parent radioligand in plasma ([1]; 120 min after injection, individual animals (n = 2)): 59% and 64% | Specific binding inhibited by administration of a MAO-B-selective ligand [2]: approximately 90% | VT (mGluR5; ACC anterior cingulate cortex, 2TC, NHP1): 11.5 mL/cm^3 | VT (mGluR5; ACC anterior cingulate cortex, 2TC, NHP2): 11.2 mL/cm^3 | VT (mGluR5; ACC anterior cingulate cortex, 2TC, mean): 11.4 mL/cm^3 | VT (mGluR5; ACC anterior cingulate cortex, GA, NHP1): 10.2 mL/cm^3 | VT (mGluR5; ACC anterior cingulate cortex, GA, NHP2): 10.7 mL/cm^3 | VT (mGluR5; ACC anterior cingulate cortex, GA, mean): 10.4 mL/cm^3 | VT (mGluR5; AMG amygdala, 2TC, NHP1): 15.0 mL/cm^3 | VT (mGluR5; AMG amygdala, 2TC, NHP2): 14.4 mL/cm^3 | VT (mGluR5; AMG amygdala, 2TC, mean): 14.7 mL/cm^3 | VT (mGluR5; AMG amygdala, GA, NHP1): 12.8 mL/cm^3 | VT (mGluR5; AMG amygdala, GA, NHP2): 13.1 mL/cm^3 | VT (mGluR5; AMG amygdala, GA, mean): 13.0 mL/cm^3 | VT (mGluR5; CAU caudate, 2TC, NHP1): 13.3 mL/cm^3 | VT (mGluR5; CAU caudate, 2TC, NHP2): 13.7 mL/cm^3 | VT (mGluR5; CAU caudate, 2TC, mean): 13.5 mL/cm^3 | VT (mGluR5; CAU caudate, GA, NHP1): 12.1 mL/cm^3 | VT (mGluR5; CAU caudate, GA, NHP2): 13.0 mL/cm^3 | VT (mGluR5; CAU caudate, GA, mean): 12.6 mL/cm^3 | VT (mGluR5; CER cerebellum, 2TC, NHP1): 7.1 mL/cm^3 | VT (mGluR5; CER cerebellum, 2TC, NHP2): 7.9 mL/cm^3 | VT (mGluR5; CER cerebellum, 2TC, mean): 7.5 mL/cm^3 | VT (mGluR5; CER cerebellum, GA, NHP1): 6.6 mL/cm^3 | VT (mGluR5; CER cerebellum, GA, NHP2): 7.6 mL/cm^3 | VT (mGluR5; CER cerebellum, GA, mean): 7.1 mL/cm^3 | VT (mGluR5; HIP hippocampus, 2TC, NHP1): 10.7 mL/cm^3 | VT (mGluR5; HIP hippocampus, 2TC, NHP2): 11.9 mL/cm^3 | VT (mGluR5; HIP hippocampus, 2TC, mean): 11.3 mL/cm^3 | VT (mGluR5; HIP hippocampus, GA, NHP1): 9.7 mL/cm^3 | VT (mGluR5; HIP hippocampus, GA, NHP2): 11.2 mL/cm^3 | VT (mGluR5; HIP hippocampus, GA, mean): 10.5 mL/cm^3 | VT (mGluR5; INS insular cortex, 2TC, NHP1): 9.0 mL/cm^3 | VT (mGluR5; INS insular cortex, 2TC, NHP2): 10.0 mL/cm^3 | VT (mGluR5; INS insular cortex, 2TC, mean): 9.5 mL/cm^3 | VT (mGluR5; INS insular cortex, GA, NHP1): 8.5 mL/cm^3 | VT (mGluR5; INS insular cortex, GA, NHP2): 9.6 mL/cm^3 | VT (mGluR5; INS insular cortex, GA, mean): 9.1 mL/cm^3 | Regional brain uptake (PET) (mGluR5; NHP brain): highest in the striatum, lower in the thalamus and frontal cortex, and lowest in the cerebellum and occipital cortex | VT (mGluR5; OC occipital cortex, 2TC, NHP1): 5.4 mL/cm^3 | VT (mGluR5; OC occipital cortex, 2TC, NHP2): 6.0 mL/cm^3 | VT (mGluR5; OC occipital cortex, 2TC, mean): 5.7 mL/cm^3 | VT (mGluR5; OC occipital cortex, GA, NHP1): 5.5 mL/cm^3 | VT (mGluR5; OC occipital cortex, GA, NHP2): 5.7 mL/cm^3 | VT (mGluR5; OC occipital cortex, GA, mean): 5.6 mL/cm^3 | VT (mGluR5; PFC prefrontal cortex, 2TC, NHP1): 9.6 mL/cm^3 | VT (mGluR5; PFC prefrontal cortex, 2TC, NHP2): 9.5 mL/cm^3 | VT (mGluR5; PFC prefrontal cortex, 2TC, mean): 9.5 mL/cm^3 | VT (mGluR5; PFC prefrontal cortex, GA, NHP1): 8.9 mL/cm^3 | VT (mGluR5; PFC prefrontal cortex, GA, NHP2): 9.3 mL/cm^3 | VT (mGluR5; PFC prefrontal cortex, GA, mean): 9.1 mL/cm^3 | VT (mGluR5; PUT putamen, 2TC, NHP1): 9.5 mL/cm^3 | VT (mGluR5; PUT putamen, 2TC, NHP2): 10.7 mL/cm^3 | VT (mGluR5; PUT putamen, 2TC, mean): 10.1 mL/cm^3 | VT (mGluR5; PUT putamen, GA, NHP1): 9.3 mL/cm^3 | VT (mGluR5; PUT putamen, GA, NHP2): 10.1 mL/cm^3 | VT (mGluR5; PUT putamen, GA, mean): 9.7 mL/cm^3 | VT (mGluR5; TC temporal cortex, 2TC, NHP1): 7.6 mL/cm^3 | VT (mGluR5; TC temporal cortex, 2TC, NHP2): 8.4 mL/cm^3 | VT (mGluR5; TC temporal cortex, 2TC, mean): 8.0 mL/cm^3 | VT (mGluR5; TC temporal cortex, GA, NHP1): 7.2 mL/cm^3 | VT (mGluR5; TC temporal cortex, GA, NHP2): 8.1 mL/cm^3 | VT (mGluR5; TC temporal cortex, GA, mean): 7.7 mL/cm^3 | VT (mGluR5; THA thalamus, 2TC, NHP1): 11.7 mL/cm^3 | VT (mGluR5; THA thalamus, 2TC, NHP2): 11.4 mL/cm^3 | VT (mGluR5; THA thalamus, 2TC, mean): 11.6 mL/cm^3 | VT (mGluR5; THA thalamus, GA, NHP1): 10.6 mL/cm^3 | VT (mGluR5; THA thalamus, GA, NHP2): 10.8 mL/cm^3 | VT (mGluR5; THA thalamus, GA, mean): 10.7 mL/cm^3 | VT (mGluR5; VM ventral midbrain, 2TC, NHP1): 11.0 mL/cm^3 | VT (mGluR5; VM ventral midbrain, 2TC, NHP2): 8.9 mL/cm^3 | VT (mGluR5; VM ventral midbrain, 2TC, mean): 9.9 mL/cm^3 | VT (mGluR5; VM ventral midbrain, GA, NHP1): 9.1 mL/cm^3 | VT (mGluR5; VM ventral midbrain, GA, NHP2): 8.4 mL/cm^3 | VT (mGluR5; VM ventral midbrain, GA, mean): 8.8 mL/cm^3 | VT (mGluR5; VST ventral striatum, 2TC, NHP1): 17.3 mL/cm^3 | VT (mGluR5; VST ventral striatum, 2TC, NHP2): 17.3 mL/cm^3 | VT (mGluR5; VST ventral striatum, 2TC, mean): 17.3 mL/cm^3 | VT (mGluR5; VST ventral striatum, GA, NHP1): 14.5 mL/cm^3 | VT (mGluR5; VST ventral striatum, GA, NHP2): 15.6 mL/cm^3 | VT (mGluR5; VST ventral striatum, GA, mean): 15.1 mL/cm^3 | Maximum whole brain radioactivity concentration (mGluR5; two cynomolgus monkeys (n = 2), i.v.): 4.9–6.7 % of the injected dose
